These results are taken from ChEMBL document CHEMBL1201862, “PubChem BioAssay data set” (2004).

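Compound exposure: 48 hours, 5 concentrations, 96-well plates. GI50: concentration for 50% inhibition of growth.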 Activity calls are given as the source filed them. Cut-off read from the data, not from the text of the source: active = GI50 up to about 1.1 µM and inactive = higher.

Holding throughout (assay): NCI-60 cell line screen, 48 h
The test system of assay [1] is 786-0.
Assay [2] concerns A549.
Assay [3] relates to ACHN.
In assay [4] the test system is HL-60.
Assay [5] concerns HOP-92.
Assay [6] deals with Hs-578T.
In assay [7] the test system is K562.
Assay [8] relates to MOLT-4.
The subject of assay [9] is Malme-3M.
For assay [10], the system named is NCI-H226.
Assay [11] has as its system NCI-H460.
In assay [12] the test system is OVCAR-8.
In assay [13] the test system is PC-3.
Assay [14] concerns SF-539.
The subject of assay [15] is SN12C.
Assay [16] concerns SNB-19.
Assay [17] concerns T47D.
In assay [18] the test system is TK-10.
Assay [19] has as its system U-251.
The subject of assay [20] is UACC-62.

For the molecule `COC1=CC(=O)c2c(O)c3c(c(O)c2C1=O)CC(C)(O)OC3` (stereo not given) [FUSARUBIN], the GI50 in assay [1] is 5510 nM (inactive); in assay [2], 1990 nM (inactive); in assay [3], 2950 nM (inactive); in assay [4], 2420 nM (inactive); in assay [5] it was 2880 nM (inactive); in assay [6], 2380 nM (inactive). Moreover, the GI50 is 3440 nM (inactive) in assay [7]; 2640 nM (inactive) in [8]; 653 nM (active) in assay [9]; 15700 nM (inactive) in assay [10]; 1180 nM (inactive) in assay [11]; 2340 nM (inactive) in assay [12]. Further, the GI50 is 2520 nM (inactive) in assay [13]; 3330 nM (inactive) in assay [14]; 3610 nM (inactive) in assay [15]; 3270 nM (inactive) in assay [16]; 2050 nM (inactive) in assay [17]; 10600 nM (inactive) in [18]. For the same molecule, the GI50 was 3080 nM (inactive) in assay [19] and 2070 nM (inactive) in [20].
